In ChEMBL document CHEMBL1201862, “PubChem BioAssay data set” (2004):
Active and inactive are the calls of the source.

Assays:
[1] = C. albicans growth with fluconazole, confirmation, fluorescence, retest (AID 2467); format: functional, cell-based
[2] = molecular target: Serine/threonine-protein phosphatase (Candida dubliniensis (strain CD36 / CBS 7987 / NCPF 3949 / NRRLY-17841) (Yeast), UniProt B9W6M3); test: calcineurin pathway inhibitors in yeast reporter, dose response, S. cerevisiae, CDRE-lacZ, luminescence, secondary (AID 2388); format: functional, cell-based;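 further: yeast reporter cells carrying a calcineurin-responsive lacZ construct stimulated with calcium chloride; luminescent beta-galactosidase reporter signal in whole cells rather than isolated phosphatase activity; potency for inhibition where a drop in reporter signal means calcineurin blockade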
Serine/threonine-protein phosphatase, sequence (B9W6M3 whole entry): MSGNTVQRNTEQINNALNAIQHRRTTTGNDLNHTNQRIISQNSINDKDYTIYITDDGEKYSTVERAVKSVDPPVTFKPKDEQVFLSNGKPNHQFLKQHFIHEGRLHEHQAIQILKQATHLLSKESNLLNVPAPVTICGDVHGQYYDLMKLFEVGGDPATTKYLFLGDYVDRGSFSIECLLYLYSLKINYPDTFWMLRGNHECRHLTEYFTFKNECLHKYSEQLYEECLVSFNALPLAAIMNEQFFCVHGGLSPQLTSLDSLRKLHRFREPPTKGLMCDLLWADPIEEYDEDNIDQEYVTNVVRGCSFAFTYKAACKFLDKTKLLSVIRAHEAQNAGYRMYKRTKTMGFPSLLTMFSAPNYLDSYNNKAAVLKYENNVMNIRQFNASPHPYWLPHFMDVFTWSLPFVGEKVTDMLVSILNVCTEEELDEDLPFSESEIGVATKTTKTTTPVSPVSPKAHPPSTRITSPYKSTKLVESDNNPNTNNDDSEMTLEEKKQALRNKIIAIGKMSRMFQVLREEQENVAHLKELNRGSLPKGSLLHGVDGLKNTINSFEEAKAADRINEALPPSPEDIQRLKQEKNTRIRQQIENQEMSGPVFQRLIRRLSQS

[3] = NIH-3T3 fibroblast cytotoxicity, dose response, cytotoxicity control, cell-based, fluorescence, Alamar Blue, secondary assay (AID 2327); format: functional;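 further: NIH-3T3 mouse fibroblasts cultured with fluconazole at 8 µg/mL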
[4] = molecular target: ATP-dependent molecular chaperone HSP82 (Candida albicans (strain WO-1) (Yeast), UniProt C4YTQ8); test: loss of DOC-induced GRE-beta-galactosidase reporter signal, dose response, Hsp90 inhibitor project, S. cerevisiae, luminescence (AID 2400); format: functional, cell-based;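 further: beta-galactosidase luminescence from glucocorticoid response element reporter as proxy for Hsp90 function; inhibitor potency where signal loss means Hsp90 inhibition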
ATP-dependent molecular chaperone HSP82, sequence (C4YTQ8 whole entry): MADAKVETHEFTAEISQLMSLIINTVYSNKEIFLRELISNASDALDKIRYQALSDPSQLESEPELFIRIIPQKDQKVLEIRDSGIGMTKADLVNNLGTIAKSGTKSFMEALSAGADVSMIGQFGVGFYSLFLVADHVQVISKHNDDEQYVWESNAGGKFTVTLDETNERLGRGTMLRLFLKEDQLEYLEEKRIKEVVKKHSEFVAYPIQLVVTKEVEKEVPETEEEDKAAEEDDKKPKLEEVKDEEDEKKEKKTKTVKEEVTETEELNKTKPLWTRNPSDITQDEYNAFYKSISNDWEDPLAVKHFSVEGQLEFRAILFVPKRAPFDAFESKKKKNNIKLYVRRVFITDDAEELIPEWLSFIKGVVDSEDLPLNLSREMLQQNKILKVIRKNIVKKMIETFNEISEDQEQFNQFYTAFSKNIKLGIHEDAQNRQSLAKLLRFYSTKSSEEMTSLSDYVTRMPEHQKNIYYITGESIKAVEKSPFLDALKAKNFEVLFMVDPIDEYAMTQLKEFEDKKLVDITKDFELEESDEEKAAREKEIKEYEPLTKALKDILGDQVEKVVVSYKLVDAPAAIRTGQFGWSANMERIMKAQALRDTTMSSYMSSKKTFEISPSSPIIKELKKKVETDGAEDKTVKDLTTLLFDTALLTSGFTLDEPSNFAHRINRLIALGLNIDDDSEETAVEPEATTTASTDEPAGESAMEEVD

[5] = molecular target: Intestinal-type alkaline phosphatase (Mus musculus, UniProt P24822); test: PubChem AID 488785; format: functional
[6] = molecular target: T1, Alkaline phosphatase, tissue-nonspecific isozyme (Homo sapiens, UniProt P05186); test: TNAP enzyme inhibition by screening hits, dose response, selectivity assay for mouse IAP inhibitor project, biochemical, human TNAP, uHTS hits (AID 488906); format: functional
T1 sequence (P05186 whole entry): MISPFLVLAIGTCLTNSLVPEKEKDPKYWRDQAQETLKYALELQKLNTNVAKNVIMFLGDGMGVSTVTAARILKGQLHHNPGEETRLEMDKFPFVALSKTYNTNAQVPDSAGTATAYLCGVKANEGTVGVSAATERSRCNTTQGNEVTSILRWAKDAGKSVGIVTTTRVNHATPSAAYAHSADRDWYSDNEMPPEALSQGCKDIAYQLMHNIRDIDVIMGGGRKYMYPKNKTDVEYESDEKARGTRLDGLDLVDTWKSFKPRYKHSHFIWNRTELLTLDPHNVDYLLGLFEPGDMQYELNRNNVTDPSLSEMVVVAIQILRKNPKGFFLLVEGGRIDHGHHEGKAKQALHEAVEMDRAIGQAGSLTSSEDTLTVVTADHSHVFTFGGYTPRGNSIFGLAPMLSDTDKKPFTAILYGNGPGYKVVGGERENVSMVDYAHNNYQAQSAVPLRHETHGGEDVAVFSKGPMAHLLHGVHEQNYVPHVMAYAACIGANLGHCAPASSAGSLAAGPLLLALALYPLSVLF

[7] = molecular target: Intestinal-type alkaline phosphatase (Homo sapiens, UniProt P09923); test: activation of human intestinal alkaline phosphatase – biochemical, dose response (AID 488873); format: functional
Intestinal-type alkaline phosphatase (Homo sapiens, UniProt P09923), sequence (P09923 whole entry): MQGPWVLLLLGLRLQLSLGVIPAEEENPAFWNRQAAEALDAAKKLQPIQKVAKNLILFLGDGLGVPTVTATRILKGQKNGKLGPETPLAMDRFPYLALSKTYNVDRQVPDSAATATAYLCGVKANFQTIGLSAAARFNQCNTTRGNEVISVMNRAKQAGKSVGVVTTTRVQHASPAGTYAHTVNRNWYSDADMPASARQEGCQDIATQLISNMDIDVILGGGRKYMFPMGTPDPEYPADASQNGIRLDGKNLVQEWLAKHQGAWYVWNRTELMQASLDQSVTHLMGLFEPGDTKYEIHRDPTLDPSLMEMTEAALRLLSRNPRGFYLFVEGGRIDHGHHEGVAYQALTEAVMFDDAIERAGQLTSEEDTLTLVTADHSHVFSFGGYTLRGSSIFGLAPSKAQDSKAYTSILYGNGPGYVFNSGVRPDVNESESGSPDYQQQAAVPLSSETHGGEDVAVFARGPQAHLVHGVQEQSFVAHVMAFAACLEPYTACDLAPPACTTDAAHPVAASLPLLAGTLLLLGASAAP

[8] = molecular target: Protein disulfide-isomerase (Homo sapiens, UniProt P07237); test: PDI inhibitors, insulin aggregation turbidity, dose response, biochemical, absorbance, cherry-picked samples (AID 602350); format: functional
Protein disulfide-isomerase, sequence (P07237 whole entry): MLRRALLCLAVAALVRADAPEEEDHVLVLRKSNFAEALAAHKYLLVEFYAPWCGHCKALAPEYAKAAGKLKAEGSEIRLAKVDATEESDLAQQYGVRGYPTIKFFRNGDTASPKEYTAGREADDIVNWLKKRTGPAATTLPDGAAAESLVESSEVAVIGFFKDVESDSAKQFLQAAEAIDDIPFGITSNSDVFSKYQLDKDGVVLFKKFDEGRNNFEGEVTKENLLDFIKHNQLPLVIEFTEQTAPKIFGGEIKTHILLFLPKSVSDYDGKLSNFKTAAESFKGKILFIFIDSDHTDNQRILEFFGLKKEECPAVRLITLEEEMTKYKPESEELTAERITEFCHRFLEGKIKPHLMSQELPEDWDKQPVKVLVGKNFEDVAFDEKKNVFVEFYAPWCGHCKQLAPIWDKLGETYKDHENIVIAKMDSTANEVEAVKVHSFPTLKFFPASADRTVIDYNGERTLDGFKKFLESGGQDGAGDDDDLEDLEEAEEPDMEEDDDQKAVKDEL

[9] = molecular target: Dual specificity tyrosine-phosphorylation-regulated kinase 1A (Rattus norvegicus, UniProt Q63470); format: biochemical, Homo sapiens
[10] = cytotoxicity toward NIH3T3 fibroblasts, dose response, counter-screen, cell-based, ATP luminescence, mouse fibroblasts (AID 2010); format: functional;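 further: cells exposed to compound for about 90 hours before reading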
[11] = molecular target: Protein Wnt-3a (Mus musculus, UniProt P27467); test: Wnt3a-driven reporter signaling inhibition, dose response, selectivity assay for Gli-SUFU antagonist project, Wnt-LIGHT cells, luminescence (AID 651570); format: functional; conditions: read-out: IC50_Mean;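 further: Wnt-LIGHT reporter cells stimulated with conditioned medium from Wnt3a-producing cells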
Protein Wnt-3a, sequence (P27467 whole entry): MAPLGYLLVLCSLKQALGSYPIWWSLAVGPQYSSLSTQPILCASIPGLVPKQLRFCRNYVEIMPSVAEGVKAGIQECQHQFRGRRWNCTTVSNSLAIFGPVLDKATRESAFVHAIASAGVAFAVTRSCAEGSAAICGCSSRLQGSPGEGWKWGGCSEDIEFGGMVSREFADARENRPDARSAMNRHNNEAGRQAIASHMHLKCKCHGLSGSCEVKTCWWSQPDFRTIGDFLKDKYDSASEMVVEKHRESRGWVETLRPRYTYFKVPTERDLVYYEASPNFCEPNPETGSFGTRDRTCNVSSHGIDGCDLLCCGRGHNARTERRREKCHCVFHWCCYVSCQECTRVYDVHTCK

[12] = inhibitors of intracellular T. cruzi replication, confirmation, NIH3T3 host cells, beta-gal luminescence (AID 2044); format: functional, cell-based;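 further: intracellular parasites grown in NIH/3T3 mouse fibroblasts as host cells; luminescent beta-galactosidase reporter signal from transgenic T. cruzi replicating inside host cells; inhibitors lower the luminescence signal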
[13] = molecular target: Benomyl/methotrexate resistance protein (Candida albicans, UniProt P28873); test: CaMdr1 efflux pump inhibitor potency, dose response, singleplex, Cherry Pick1 hits (AID 588608); format: functional
Benomyl/methotrexate resistance protein, sequence (P28873 whole entry): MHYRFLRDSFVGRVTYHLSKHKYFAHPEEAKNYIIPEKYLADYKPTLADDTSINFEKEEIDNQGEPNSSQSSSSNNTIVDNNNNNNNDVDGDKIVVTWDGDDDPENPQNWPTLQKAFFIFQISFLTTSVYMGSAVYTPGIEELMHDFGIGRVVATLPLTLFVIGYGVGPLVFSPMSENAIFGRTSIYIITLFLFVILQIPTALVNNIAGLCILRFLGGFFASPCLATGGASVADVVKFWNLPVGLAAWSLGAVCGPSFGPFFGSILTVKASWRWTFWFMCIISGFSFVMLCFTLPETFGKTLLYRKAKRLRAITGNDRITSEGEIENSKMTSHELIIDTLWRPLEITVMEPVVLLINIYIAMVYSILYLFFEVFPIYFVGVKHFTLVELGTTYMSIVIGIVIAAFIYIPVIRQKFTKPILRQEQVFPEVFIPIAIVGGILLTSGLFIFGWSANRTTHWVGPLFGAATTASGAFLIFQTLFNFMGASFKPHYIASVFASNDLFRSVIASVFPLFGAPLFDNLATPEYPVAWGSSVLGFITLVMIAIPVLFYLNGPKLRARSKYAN

[14] = molecular target: Melanocortin receptor 4 (Homo sapiens, UniProt P32245); format: functional, cell-based;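 further: Cell-based assay with luminescence read-out, confirmatory dose-response testing for agonist activity of biased ligands at MC4R; human U2OS cells with tagged receptor and beta-arrestin; potency of agonists that increase receptor coupling to beta-arrestin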
Melanocortin receptor 4, sequence (P32245 whole entry): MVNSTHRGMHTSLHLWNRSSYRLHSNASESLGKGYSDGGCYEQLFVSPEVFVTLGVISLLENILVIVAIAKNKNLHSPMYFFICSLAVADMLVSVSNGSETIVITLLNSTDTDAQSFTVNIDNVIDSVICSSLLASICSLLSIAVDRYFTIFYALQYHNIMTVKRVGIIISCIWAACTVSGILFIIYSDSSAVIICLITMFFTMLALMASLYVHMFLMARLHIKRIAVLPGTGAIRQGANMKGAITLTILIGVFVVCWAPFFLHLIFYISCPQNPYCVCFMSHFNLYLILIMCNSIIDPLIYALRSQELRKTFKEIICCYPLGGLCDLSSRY

[15] = molecular target: T2, Calpain-2 catalytic subunit (Sus scrofa, UniProt P43367); test: pig calpain II inhibitor potency, dose response, biochemical, fluorogenic peptide substrate (AID 1420); format: functional
T2 sequence (P43367 whole entry): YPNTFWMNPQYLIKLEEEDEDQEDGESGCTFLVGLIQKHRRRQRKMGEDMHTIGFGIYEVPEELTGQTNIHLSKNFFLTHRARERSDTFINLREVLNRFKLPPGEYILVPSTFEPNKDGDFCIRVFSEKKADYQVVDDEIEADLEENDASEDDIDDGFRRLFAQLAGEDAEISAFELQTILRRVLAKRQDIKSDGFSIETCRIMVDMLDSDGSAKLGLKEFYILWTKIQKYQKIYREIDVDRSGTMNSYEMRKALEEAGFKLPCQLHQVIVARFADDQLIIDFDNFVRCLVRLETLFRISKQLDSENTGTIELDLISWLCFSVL

[16] = molecular target: Phospholipase A2 (Homo sapiens, UniProt P04054); format: functional;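 further: confirmatory dose-response counterscreen on phospholipase A2, testing hits that came from an ultra-high-throughput screen for ATG4B inhibitors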
Phospholipase A2, sequence (P04054 whole entry): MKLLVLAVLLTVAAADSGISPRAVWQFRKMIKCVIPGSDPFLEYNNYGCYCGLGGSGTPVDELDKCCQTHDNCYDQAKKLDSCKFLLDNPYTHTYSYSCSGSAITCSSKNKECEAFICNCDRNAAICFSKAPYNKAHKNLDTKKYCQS

[17] = molecular target: Cysteine protease ATG4B (Homo sapiens, UniProt Q9Y4P1); format: functional;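 further: Fluorescence-based dose-response confirmation assay measuring inhibition of ATG4B activity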
Cysteine protease ATG4B, sequence (Q9Y4P1 whole entry): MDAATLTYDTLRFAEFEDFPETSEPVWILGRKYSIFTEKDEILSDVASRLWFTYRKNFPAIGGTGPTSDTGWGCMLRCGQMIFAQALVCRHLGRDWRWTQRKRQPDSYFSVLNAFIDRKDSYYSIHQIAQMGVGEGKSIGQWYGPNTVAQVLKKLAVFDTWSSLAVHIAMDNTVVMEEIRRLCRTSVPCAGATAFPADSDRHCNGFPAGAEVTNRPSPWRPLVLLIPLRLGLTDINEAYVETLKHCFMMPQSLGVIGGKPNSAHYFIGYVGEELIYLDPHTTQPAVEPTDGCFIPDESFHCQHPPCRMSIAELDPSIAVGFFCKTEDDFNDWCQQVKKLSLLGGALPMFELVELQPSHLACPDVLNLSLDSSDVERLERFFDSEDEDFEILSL

[18] = molecular target: T3, Caspase-3 (Homo sapiens, UniProt P42574); test: SAR Analysis of small molecule inhibitors of Sentrin-specific proteases (SENPs) using a Caspase-3 Selectivity assay. [Related pubchem assays (depositor defined):AID2540, AID2599, AID434973, AID489001]; format: functional
T3 sequence (P42574 whole entry): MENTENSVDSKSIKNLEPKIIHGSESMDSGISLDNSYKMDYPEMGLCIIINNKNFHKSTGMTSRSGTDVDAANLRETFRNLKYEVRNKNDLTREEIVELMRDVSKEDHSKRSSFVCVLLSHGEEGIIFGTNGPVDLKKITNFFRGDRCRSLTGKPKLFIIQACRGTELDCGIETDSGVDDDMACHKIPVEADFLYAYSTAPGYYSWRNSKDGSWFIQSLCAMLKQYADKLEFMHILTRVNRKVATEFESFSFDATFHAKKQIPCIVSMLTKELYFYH

[19] = molecular target: T4, Sentrin-specific protease 8 (Homo sapiens, UniProt Q96LD8); test: SENP8 protease inhibitors, SAR follow-up, biochemical, luminescence (AID 504501); format: functional
T4 sequence (Q96LD8 whole entry): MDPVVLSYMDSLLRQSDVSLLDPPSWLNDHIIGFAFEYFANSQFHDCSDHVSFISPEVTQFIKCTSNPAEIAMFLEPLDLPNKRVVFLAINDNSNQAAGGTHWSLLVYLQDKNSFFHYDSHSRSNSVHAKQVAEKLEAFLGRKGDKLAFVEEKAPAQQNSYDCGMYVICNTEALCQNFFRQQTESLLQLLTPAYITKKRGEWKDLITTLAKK

[20] = molecular target: T5, Sentrin-specific protease 7 (Homo sapiens, UniProt Q9BQF6); test: SENP7 protease inhibitors, SAR follow-up, biochemical, luminescence (AID 504497); format: functional
T5 sequence (Q9BQF6 whole entry): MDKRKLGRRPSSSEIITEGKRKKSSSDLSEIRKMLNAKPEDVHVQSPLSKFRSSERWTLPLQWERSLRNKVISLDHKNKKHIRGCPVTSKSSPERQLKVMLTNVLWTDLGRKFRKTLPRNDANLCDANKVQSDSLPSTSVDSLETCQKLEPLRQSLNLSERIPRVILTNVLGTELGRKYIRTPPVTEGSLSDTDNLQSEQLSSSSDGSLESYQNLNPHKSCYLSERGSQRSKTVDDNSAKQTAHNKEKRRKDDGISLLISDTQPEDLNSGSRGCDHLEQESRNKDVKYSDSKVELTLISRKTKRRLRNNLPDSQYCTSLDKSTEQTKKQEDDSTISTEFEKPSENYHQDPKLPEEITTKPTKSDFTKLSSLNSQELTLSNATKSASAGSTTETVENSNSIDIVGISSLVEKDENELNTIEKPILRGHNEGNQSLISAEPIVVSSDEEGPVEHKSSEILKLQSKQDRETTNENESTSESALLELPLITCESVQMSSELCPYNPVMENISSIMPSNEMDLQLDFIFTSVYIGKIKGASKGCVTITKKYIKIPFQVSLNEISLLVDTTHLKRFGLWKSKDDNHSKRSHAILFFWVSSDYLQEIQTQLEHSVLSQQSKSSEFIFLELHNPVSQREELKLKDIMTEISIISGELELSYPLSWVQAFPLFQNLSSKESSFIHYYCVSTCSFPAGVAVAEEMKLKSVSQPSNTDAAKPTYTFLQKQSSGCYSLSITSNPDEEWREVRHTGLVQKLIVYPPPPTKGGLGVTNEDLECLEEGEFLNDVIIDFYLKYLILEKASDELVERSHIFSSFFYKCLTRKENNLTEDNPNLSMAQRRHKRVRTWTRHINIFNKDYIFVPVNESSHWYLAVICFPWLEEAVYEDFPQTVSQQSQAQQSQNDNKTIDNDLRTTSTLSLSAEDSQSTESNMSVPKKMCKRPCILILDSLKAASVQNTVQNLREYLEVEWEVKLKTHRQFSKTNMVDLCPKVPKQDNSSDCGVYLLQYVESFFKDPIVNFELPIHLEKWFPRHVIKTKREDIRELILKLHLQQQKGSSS

[21] = molecular target: T6, Sentrin-specific protease 6 (Homo sapiens, UniProt Q9GZR1); test: SAR Analysis of small molecule inhibitors of Sentrin-specific protease 6 (SENP6) using a Luminescent assay. [Related pubchem assays (depositor defined):AID2582, AID2599]; format: functional
T6 sequence (Q9GZR1 whole entry): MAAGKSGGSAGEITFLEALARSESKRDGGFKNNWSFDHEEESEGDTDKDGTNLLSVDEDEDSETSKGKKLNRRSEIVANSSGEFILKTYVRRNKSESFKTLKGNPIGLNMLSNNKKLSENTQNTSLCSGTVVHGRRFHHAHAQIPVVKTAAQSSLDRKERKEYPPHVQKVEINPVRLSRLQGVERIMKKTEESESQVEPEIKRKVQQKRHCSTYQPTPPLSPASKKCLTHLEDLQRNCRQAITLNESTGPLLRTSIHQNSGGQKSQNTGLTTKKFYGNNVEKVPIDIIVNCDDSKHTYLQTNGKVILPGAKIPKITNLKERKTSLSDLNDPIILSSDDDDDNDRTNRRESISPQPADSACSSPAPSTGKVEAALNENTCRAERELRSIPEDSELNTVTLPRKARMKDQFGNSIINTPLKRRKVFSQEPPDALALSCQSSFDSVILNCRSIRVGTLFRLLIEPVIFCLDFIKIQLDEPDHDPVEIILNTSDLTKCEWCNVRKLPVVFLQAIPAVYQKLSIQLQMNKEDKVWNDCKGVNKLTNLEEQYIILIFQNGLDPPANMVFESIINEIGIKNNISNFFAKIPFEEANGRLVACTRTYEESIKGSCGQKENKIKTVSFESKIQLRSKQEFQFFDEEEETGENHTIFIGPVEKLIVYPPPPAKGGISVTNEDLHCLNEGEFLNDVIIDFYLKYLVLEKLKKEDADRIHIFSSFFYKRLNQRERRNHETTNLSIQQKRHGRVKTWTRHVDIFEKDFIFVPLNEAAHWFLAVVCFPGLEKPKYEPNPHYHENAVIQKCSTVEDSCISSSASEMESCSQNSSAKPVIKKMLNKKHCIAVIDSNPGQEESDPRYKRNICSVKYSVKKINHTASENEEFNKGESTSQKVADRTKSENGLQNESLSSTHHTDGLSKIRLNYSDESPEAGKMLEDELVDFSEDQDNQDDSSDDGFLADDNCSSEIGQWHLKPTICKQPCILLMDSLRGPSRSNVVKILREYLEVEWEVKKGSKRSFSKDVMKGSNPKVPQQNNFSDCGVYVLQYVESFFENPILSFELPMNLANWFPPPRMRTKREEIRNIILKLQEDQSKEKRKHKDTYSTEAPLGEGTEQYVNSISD

[22] = molecular target: Melanin-concentrating hormone receptor 1 (Homo sapiens, UniProt Q99705); test: Late-stage fluorescence-based counterscreen for antagonists of the G-protein coupled receptor 7 (GPR7): cell-based dose response assay to identify antagonists of the melanin-concentrating hormone receptor 1 (MCHR1) Set 6.; format: functional
Melanin-concentrating hormone receptor 1, sequence (Q99705 whole entry): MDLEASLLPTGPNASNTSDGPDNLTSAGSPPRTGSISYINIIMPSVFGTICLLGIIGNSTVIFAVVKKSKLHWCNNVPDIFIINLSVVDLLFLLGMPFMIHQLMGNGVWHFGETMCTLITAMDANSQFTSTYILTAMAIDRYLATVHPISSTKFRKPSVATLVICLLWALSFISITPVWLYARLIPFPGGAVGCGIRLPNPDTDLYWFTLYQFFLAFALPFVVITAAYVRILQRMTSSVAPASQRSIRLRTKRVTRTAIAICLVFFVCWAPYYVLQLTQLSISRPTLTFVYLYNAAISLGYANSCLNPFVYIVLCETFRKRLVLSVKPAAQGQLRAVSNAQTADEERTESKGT

[23] = molecular target: Neuropeptides B/W receptor type 1 (Homo sapiens, UniProt P48145); test: GPR7 antagonist potency, late-stage follow-up, cell-based, fluorescence, dose response, set 6 (AID 588583); format: functional
Neuropeptides B/W receptor type 1, sequence (P48145 whole entry): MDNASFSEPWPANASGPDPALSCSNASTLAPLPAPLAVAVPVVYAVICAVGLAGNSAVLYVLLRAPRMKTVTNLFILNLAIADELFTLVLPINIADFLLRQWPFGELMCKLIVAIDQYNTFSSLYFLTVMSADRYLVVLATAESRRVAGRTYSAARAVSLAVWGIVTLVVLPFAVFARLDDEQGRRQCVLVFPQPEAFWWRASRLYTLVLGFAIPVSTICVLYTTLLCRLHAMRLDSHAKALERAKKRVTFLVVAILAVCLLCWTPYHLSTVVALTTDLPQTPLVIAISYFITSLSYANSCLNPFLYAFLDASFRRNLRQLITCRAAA

COc1ccc(C(=O)NNC(=S)NC(=O)c2ccc(Cl)cc2)cc1
EC50 [1]: 0.275 µM (active)
EC50 [2]: > 180 µM (inactive)
EC50 [3]: > 160 µM (inactive)
EC50 [4]: 13.9 µM (active)

C[C@@H]1O[C@@H](O[C@H]2[C@H](O)[C@@H](O)[C@H](Oc3c(-c4ccc(O)c(O)c4)oc4cc(O)cc(O)c4c3=O)O[C@@H]2CO)[C@H](O)[C@H](O)[C@H]1O
IC50 [5]: 5.66 µM (active)
IC50 [6]: 10.8 µM (active)
EC50 [7]: 22 µM (active)
AC50 [8]: 4.28 µM (active)
AC50 [9]: 11.4 µM (active)

c1ccc(-c2cn3c([n+]2-c2ccccc2)SCC3)cc1
EC50 [10]: > 60 µM (not active)
IC50 [11]: 37.6 µM (inactive)
EC50 [12]: 1.92 µM (active)

COc1ccccc1-c1nc(C(N)=O)c2[nH]c(=O)n(-c3cccc(C)c3)c2n1
EC50 [13]: 17.2 µM (active)

CCOC(=O)c1ccc(-c2ccc(/C=C(\C#N)C(=O)NCc3cccs3)o2)cc1
EC50 [14]: > 89.2 µM (inactive)

COc1cnc(SCc2c(Cl)cccc2Cl)nc1Cl
IC50 [15]: < 0.4 µM (not active)
IC50 [16]: 7.65 µM (active)
IC50 [17]: 7.76 µM (active)

CCOC(=O)c1c(-c2ccc(-c3ccccc3)cc2)csc1NC(=O)c1ccc(C)cc1
IC50 [18]: > 99 µM (inactive)
IC50 [19]: > 99 µM (inactive)
IC50 [20]: > 99 µM (inactive)
IC50 [21]: > 99 µM (inactive)

Oc1ccccc1-c1noc(-c2ccccc2O)n1
IC50 [18]: 0.97 µM (active)
IC50 [19]: 3.6 µM (active)
IC50 [20]: 2 µM (active)
IC50 [21]: 3.5 µM (active)

N#CC(C#N)c1cnn(Cc2cccc3ccccc23)c(=O)c1Cl
IC50 [22]: > 20 µM (inactive)
IC50 [23]: > 20 µM (inactive)

CCC(C#N)c1c(Cl)cnn(Cc2cccc3ccccc23)c1=O (stereo not given)
IC50 [22]: 2.17 µM (active)
IC50 [23]: 2.17 µM (active)

C[C@@H]1O[C@@H](Oc2c(-c3ccc(O)c(O)c3)oc3cc(O)cc(O)c3c2=O)[C@H](O)[C@H](O)[C@H]1O [QUERCITRIN]
AC50 [8]: 2.48 µM (active)
